Measured values taken from PubChem BioAssay (NCI).
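Dose response: 5 concentrations. Exposure: 48 h. Format: 96-well plates. Endpoint: linear interpolation; highest concentration if not reached. At the TGI there is no net growth.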

Legend:
Test in all cases: DTP human tumour cell line panel, 48 h
[1] = test system: SW-620 colon
[2] = test system: MDA-N
[3] = test system: OVCAR-4 ovarian
[4] = test system: SNB-19 CNS
[5] = test system: SK-OV-3 ovarian
[6] = test system: UACC-62 melanoma
[7] = test system: A498 renal
[8] = test system: SF-268 CNS
[9] = test system: M14 melanoma
[10] = test system: MDA-MB-231 breast
[11] = test system: UO-31 renal
[12] = test system: RXF 393 renal
[13] = test system: KM12 colon
[14] = test system: HCC-2998 colon
[15] = test system: OVCAR-8 ovarian
[16] = test system: DU-145 prostate
[17] = test system: SK-MEL-28 melanoma
[18] = test system: A549 NSCLC
[19] = test system: SK-MEL-2 melanoma
[20] = test system: T-47D breast
[21] = test system: SK-MEL-5 melanoma
[22] = test system: SF-295 CNS
[23] = test system: EKVX NSCLC
[24] = test system: HOP-92 NSCLC
[25] = test system: HS 578T breast
[26] = test system: SR leukemia
[27] = test system: NCI-H522 lung
[28] = test system: MALME-3M melanoma
[29] = test system: RPMI-8226 leukemia
[30] = test system: OVCAR-5 ovarian
[31] = test system: PC-3 prostate
[32] = test system: ACHN renal
[33] = test system: IGROV1 ovarian
[34] = test system: HT29 colon
[35] = test system: HCT-116 colon
[36] = test system: TK-10 renal
[37] = test system: MDA-MB-435
[38] = test system: NCI-H226 lung
[39] = test system: NCI-H23 lung
[40] = test system: HL-60(TB) leukemia
[41] = test system: NCI/ADR-RES ovarian
[42] = test system: COLO 205 colon
[43] = test system: SF-539 CNS
[44] = test system: MCF7 breast
[45] = test system: U251 CNS
[46] = test system: UACC-257 melanoma
[47] = test system: LOX IMVI melanoma
[48] = test system: CAKI-1 renal
[49] = test system: MOLT-4 leukemia
[50] = test system: SNB-75 CNS
[51] = test system: BT-549 breast
[52] = test system: NCI-H460 lung
[53] = test system: K-562 leukemia
[54] = test system: SN12C renal
[55] = test system: HCT-15 colon
[56] = test system: HOP-62 NSCLC
[57] = test system: OVCAR-3 ovarian
[58] = test system: 786-0 renal
[59] = test system: CCRF-CEM leukemia

`[B]C(=O)NC(CC(C)C)C(=O)NCC(=O)NC1c2ccsc2C(=O)C1O` (stereo unspecified) (tested in a mixture with another compound) was tested, and the TGI [1] was > 100 µM, the TGI [2] was > 100 µM and the TGI [3] was > 100 µM. The TGI [4] was > 100 µM, the TGI [5] was > 100 µM and the TGI [6] was > 100 µM. The TGI [7] was > 100 µM, the TGI [8] was > 100 µM and the TGI [9] was > 100 µM. For the same compound, the TGI [10] was > 100 µM, the TGI [11] was > 100 µM and the TGI [12] was > 100 µM. The TGI [13] was > 100 µM, the TGI [14] was > 100 µM and the TGI [15] was > 100 µM. The TGI [16] was > 100 µM, the TGI [17] was > 100 µM and the TGI [18] was > 100 µM. For the same compound, the TGI [19] was > 100 µM, the TGI [20] was > 100 µM and the TGI [21] was > 100 µM. The TGI [22] was > 100 µM, the TGI [23] was > 100 µM and the TGI [24] was > 100 µM. For the same compound, the TGI [25] was > 100 µM, the TGI [26] was > 100 µM and the TGI [27] was > 100 µM. For the same compound, the TGI [28] was > 100 µM, the TGI [29] was > 100 µM and the TGI [30] was > 100 µM. For the same compound, the TGI [31] was > 100 µM, the TGI [32] was > 100 µM and the TGI [33] was > 100 µM. For the same compound, the TGI [34] was > 100 µM, the TGI [35] was > 100 µM and the TGI [36] was > 100 µM. The TGI [37] was > 100 µM, the TGI [38] was > 100 µM and the TGI [39] was > 100 µM. For the same compound, the TGI [40] was > 100 µM, the TGI [41] was > 100 µM and the TGI [42] was > 100 µM. The TGI [43] was > 100 µM, the TGI [44] was > 100 µM and the TGI [45] was > 100 µM. The TGI [46] was > 100 µM, the TGI [47] was > 100 µM and the TGI [48] was > 100 µM. For the same compound, the TGI [49] was > 100 µM, the TGI [50] was > 100 µM and the TGI [51] was > 100 µM. For the same compound, the TGI [52] was > 31.6 µM, the TGI [53] was > 31.6 µM and the TGI [54] was > 100 µM. The TGI [55] was > 100 µM, the TGI [56] was > 100 µM and the TGI [57] was > 100 µM. For the same compound, the TGI [58] was > 100 µM and the TGI [59] was > 31.6 µM.
`COC(=O)[C@@H]1CO[C@H](C(C)(C)C)N1C(=O)N1C=CC(=O)C[C@H]1C` was tested, and the TGI [1] was > 100 µM, the TGI [2] was > 100 µM and the TGI [5] was > 100 µM. The TGI [6] was > 100 µM, the TGI [7] was > 100 µM and the TGI [8] was > 100 µM. The TGI [9] was > 100 µM, the TGI [10] was > 100 µM and the TGI [11] was > 100 µM. The TGI [12] was > 100 µM, the TGI [13] was > 100 µM and the TGI [15] was > 100 µM. The TGI [16] was > 100 µM, the TGI [17] was > 100 µM and the TGI [18] was > 100 µM. For the same compound, the TGI [19] was > 100 µM, the TGI [20] was > 100 µM and the TGI [21] was > 100 µM. For the same compound, the TGI [22] was > 100 µM, the TGI [23] was > 100 µM and the TGI [24] was > 100 µM. For the same compound, the TGI [25] was > 100 µM, the TGI [26] was > 100 µM and the TGI [27] was > 100 µM. The TGI [28] was > 100 µM, the TGI [29] was > 100 µM and the TGI [30] was > 100 µM. For the same compound, the TGI [31] was > 100 µM, the TGI [32] was > 100 µM and the TGI [33] was > 100 µM. The TGI [34] was > 100 µM, the TGI [35] was > 100 µM and the TGI [36] was > 100 µM. For the same compound, the TGI [37] was > 100 µM, the TGI [38] was > 100 µM and the TGI [39] was > 100 µM. For the same compound, the TGI [40] was > 100 µM, the TGI [41] was > 100 µM and the TGI [42] was > 100 µM. The TGI [44] was > 100 µM, the TGI [45] was > 100 µM and the TGI [46] was > 100 µM. The TGI [47] was > 100 µM, the TGI [48] was > 100 µM and the TGI [50] was > 100 µM. The TGI [51] was > 100 µM, the TGI [53] was > 100 µM and the TGI [54] was > 100 µM. The TGI [56] was > 100 µM, the TGI [57] was > 100 µM and the TGI [58] was > 100 µM. The TGI [59] was > 100 µM.
With `NCCOc1cccc(C2(N3CCCCC3)CCCCC2)c1` the TGI [1] was > 100 µM, the TGI [2] was 33.3 µM and the TGI [3] was > 100 µM. The TGI [4] was > 100 µM, the TGI [5] was > 100 µM and the TGI [6] was 44.2 µM. It also gave a TGI [7] of 98.6 µM, a TGI [8] of 86.7 µM and a TGI [9] of 30.2 µM. For the same compound, the TGI [10] was 46.3 µM, the TGI [11] was 28.2 µM and the TGI [12] was > 100 µM. The TGI [13] was > 100 µM, the TGI [14] was 37.5 µM and the TGI [15] was > 100 µM. For the same compound, the TGI [16] was > 100 µM, the TGI [17] was 35.5 µM and the TGI [18] was > 100 µM. The TGI [19] was 52.2 µM, the TGI [20] was > 100 µM and the TGI [21] was 30.1 µM. It also gave a TGI [22] of 77.1 µM, a TGI [23] of 62.6 µM and a TGI [24] of 95.2 µM. It also gave a TGI [25] of 38.5 µM, a TGI [26] of 34.8 µM and a TGI [27] of 36.1 µM. For the same compound, the TGI [28] was 35.1 µM, the TGI [29] was 48.4 µM and the TGI [30] was > 100 µM. The TGI [31] was > 100 µM, the TGI [32] was > 100 µM and the TGI [34] was 41.2 µM. For the same compound, the TGI [35] was 34.4 µM, the TGI [36] was > 100 µM and the TGI [37] was 33.6 µM. The TGI [38] was > 100 µM, the TGI [39] was > 100 µM and the TGI [40] was 89.2 µM. For the same compound, the TGI [41] was > 100 µM, the TGI [42] was 26 µM and the TGI [43] was 32.3 µM. For the same compound, the TGI [44] was > 100 µM, the TGI [45] was 35.1 µM and the TGI [46] was 34 µM. For the same compound, the TGI [47] was 28.9 µM, the TGI [48] was > 100 µM and the TGI [49] was 48.7 µM. The TGI [50] was > 100 µM, the TGI [51] was 40 µM and the TGI [52] was > 100 µM. The TGI [53] was 35.1 µM, the TGI [54] was > 100 µM and the TGI [55] was > 100 µM. The TGI [56] was > 100 µM, the TGI [57] was > 100 µM and the TGI [58] was 26.1 µM. It also gave a TGI [59] of 35.8 µM.
`CSCCC(C(=O)O)N(C)C` (stereo unspecified) was tested, and the TGI [1] was > 100 µM, the TGI [2] was > 100 µM and the TGI [3] was > 100 µM. The TGI [4] was > 100 µM, the TGI [5] was > 100 µM and the TGI [6] was > 100 µM. The TGI [7] was > 100 µM, the TGI [8] was > 100 µM and the TGI [9] was > 100 µM. For the same compound, the TGI [10] was > 100 µM, the TGI [11] was > 100 µM and the TGI [12] was > 100 µM. For the same compound, the TGI [13] was > 100 µM, the TGI [15] was > 100 µM and the TGI [16] was > 100 µM. The TGI [17] was > 100 µM, the TGI [18] was > 100 µM and the TGI [19] was > 100 µM. For the same compound, the TGI [20] was > 100 µM, the TGI [21] was > 100 µM and the TGI [22] was > 100 µM. The TGI [23] was > 100 µM, the TGI [24] was > 100 µM and the TGI [25] was > 100 µM. For the same compound, the TGI [26] was > 100 µM, the TGI [27] was > 100 µM and the TGI [28] was > 100 µM. For the same compound, the TGI [29] was > 100 µM, the TGI [30] was > 100 µM and the TGI [31] was > 100 µM. For the same compound, the TGI [32] was > 100 µM, the TGI [33] was > 100 µM and the TGI [34] was > 100 µM. For the same compound, the TGI [35] was > 100 µM, the TGI [36] was > 100 µM and the TGI [37] was > 100 µM. For the same compound, the TGI [38] was > 100 µM, the TGI [39] was > 100 µM and the TGI [40] was > 100 µM. For the same compound, the TGI [41] was > 100 µM, the TGI [42] was > 100 µM and the TGI [43] was > 100 µM. For the same compound, the TGI [44] was > 100 µM, the TGI [45] was > 100 µM and the TGI [46] was > 100 µM. The TGI [47] was > 100 µM, the TGI [48] was > 100 µM and the TGI [50] was > 100 µM. The TGI [51] was > 100 µM, the TGI [52] was > 100 µM and the TGI [53] was > 100 µM. The TGI [54] was > 100 µM, the TGI [55] was > 100 µM and the TGI [56] was > 100 µM. For the same compound, the TGI [57] was > 100 µM, the TGI [58] was > 100 µM and the TGI [59] was > 100 µM.
